In ChEMBL document CHEMBL4507295 (2021) one finds inhibition data, which are given here for 2 compounds.

Broadly, the inhibition is the relative decrease from the control value, in per cent.

Series [1] concerns the target D(1B) dopamine receptor (Homo sapiens) (UniProt P21918). The series can be described thus: Dopamine D5 Eurofins-Panlabs radioligand binding assay. Conditions: Compound concentration 10.0 uM; call rule not given here.
The target of series [2] is Vasopressin V2 receptor (Homo sapiens) (UniProt P30518). Put plainly: Vasopressin V2 Eurofins-Panlabs radioligand binding assay. Also on record: ligand concentration 0.5 nM. Conditions: Compound concentration 10.0 uM.
Series [3] has as its target Glutamate receptor 2 (Homo sapiens) (UniProt P42262). The following applies: Rattus norvegicus; Compound concentration 10.0 uM.
Series [4] has as its target Oxytocin receptor (Homo sapiens) (UniProt P30559). The series can be described thus: Oxytocin Eurofins-Panlabs radioligand binding assay. The following applies: Compound concentration 10.0 uM.
Series [5] is filed under the species Homo sapiens. Put plainly: Protein Serine/Threonine Kinase, MAPK14 (p38α) Eurofins-Panlabs enzyme assay. Also on record: substrate with concentration 10 µg/mL Myelin Basic Protein (MBP), incubation time 60 min, incubation temperature 25 °C. The following applies: Compound concentration 10.0 uM.
Series [6] deals with Melanocortin receptor 5 (Homo sapiens) (UniProt P33032). The series can be described thus: Inhibition of Melanocortin MC5 at 10 µM in the Eurofins-Panlabs radioligand binding assay (Eurofins_assay_251400). Also on record: ligand concentration 0.035 nM. The following applies: Compound concentration 10.0 uM.
The target of series [7] is Calcitonin receptor (Homo sapiens) (UniProt P30988). The series can be described thus: Inhibition of Calcitonin at 10 µM in the Eurofins-Panlabs radioligand binding assay (Eurofins_assay_213610). Conditions: Compound concentration 10.0 uM.
Series [8] concerns the target Caspase-8 (Homo sapiens) (UniProt Q14790). Put plainly: Peptidase, CASP8 (Caspase 8) Eurofins-Panlabs enzyme assay. The following applies: Compound concentration 10.0 uM.
In series [9] the target is Caspase-3 (Homo sapiens) (UniProt P42574). The series can be described thus: Peptidase, CASP3 (Caspase 3) Eurofins-Panlabs enzyme assay. Conditions: Compound concentration 10.0 uM.
Series [10] has as its target 5-hydroxytryptamine receptor 6 (Homo sapiens) (UniProt P50406). Put plainly: Inhibition of Serotonin (5-Hydroxytryptamine) 5-HT6 at 10 µM in the Eurofins-Panlabs radioligand binding assay (Eurofins_assay_272200). Conditions: Compound concentration 10.0 uM.
Series [11] has as its target Epidermal growth factor receptor (Homo sapiens) (UniProt P00533). The series can be described thus: Inhibition of Epidermal Growth Factor (EGF) at 10 µM in the Eurofins-Panlabs radioligand binding assay (Eurofins_assay_225510). Conditions: Compound concentration 10.0 uM.
The target in series [12] is Type-1 angiotensin II receptor (Homo sapiens) (UniProt P30556). Put plainly: Angiotensin AT1 Eurofins-Panlabs radioligand binding assay. The following applies: Compound concentration 10.0 uM.
The target of series [13] is Beta-2 adrenergic receptor (Homo sapiens) (UniProt P07550). The following applies: Compound concentration 10.0 uM.
For series [14], the species on record is Rattus norvegicus. Put plainly: Adrenergic α2, Non-selective Eurofins-Panlabs radioligand binding assay. It counts as protein assay. The following applies: Compound concentration 10.0 uM.
Series [15] is filed under the species Rattus norvegicus. Put plainly: Serotonin (5-Hydroxytryptamine) 5-HT2, Non-Selective Eurofins-Panlabs radioligand binding assay. Conditions: Compound concentration 10.0 uM. It counts as protein assay.
The target in series [16] is Vascular endothelial growth factor receptor 1 (Homo sapiens) (UniProt P17948). The series can be described thus: Protein Tyrosine Kinase, FLT1 (VEGFR-1) Eurofins-Panlabs enzyme assay. Conditions: Compound concentration 10.0 uM.
Series [17] addresses Polyunsaturated fatty acid lipoxygenase ALOX12 (Homo sapiens) (UniProt P18054). The series can be described thus: Lipoxygenase 12-LO Eurofins-Panlabs enzyme assay. The following applies: Compound concentration 10.0 uM. On the set-up: substrate with concentration.
Series [18] has as its target Prostaglandin E2 receptor EP3 subtype (Homo sapiens) (UniProt P43115). The series can be described thus: Prostanoid EP3 Eurofins-Panlabs radioligand binding assay. On the set-up: ligand concentration 0.5 nM, non-specific ligand with concentration 10 µM Prostaglandin EŽ2 (PGE2), incubation time 60 min, incubation temperature 25 °C. The following applies: Compound concentration 10.0 uM.

The target of series [19] is Epidermal growth factor receptor (Homo sapiens) (UniProt P00533). The series can be described thus: Protein Tyrosine Kinase, EGF Receptor Eurofins-Panlabs enzyme assay. On the set-up: substrate with concentration 10 µg/mL Poly(Glu:Tyr), incubation time 60 min, incubation temperature 25 °C. Conditions: Compound concentration 10.0 uM.
Series [20] addresses Somatostatin receptor type 4 (Homo sapiens) (UniProt P31391). Put plainly: Somatostatin sst4 Eurofins-Panlabs radioligand binding assay. On the set-up: ligand concentration 0.1 nM, non-specific ligand with concentration 1 µM Somatostatin-14, incubation time 45 min, incubation temperature 25 °C. The following applies: Compound concentration 10.0 uM.
Series [21] has as its target D(3) dopamine receptor (Homo sapiens) (UniProt P35462). The following applies: Compound concentration 10.0 uM.
In series [22] the target is Nociceptin receptor (Homo sapiens) (UniProt P41146). Put plainly: Orphanin ORL1 Eurofins-Panlabs radioligand binding assay. The following applies: Compound concentration 10.0 uM.
Series [23] addresses Substance-K receptor (Homo sapiens) (UniProt P21452). The series can be described thus: Inhibition of Tachykinin NK2 at 10 µM in the Eurofins-Panlabs radioligand binding assay (Eurofins_assay_255600). Also on record: ligand concentration 0.5 nM. The following applies: Compound concentration 10.0 uM.
Series [24] in a line: Inhibition of Atrial Natriuretic Factor (ANF) at 10 µM in the Eurofins-Panlabs radioligand binding assay (Eurofins_assay_211000). The following applies: Cavia porcellus.
In series [25] the target is Vasoactive intestinal polypeptide receptor 1 (Homo sapiens) (UniProt P32241). The series can be described thus: Inhibition of Vasoactive Intestinal Peptide VIP1 at 10 µM in the Eurofins-Panlabs radioligand binding assay (Eurofins_assay_287010). The following applies: Compound concentration 10.0 uM.
Series [26] deals with Phosphodiesterase 3 (Homo sapiens) (UniProt Q14432+Q13370). Put plainly: Inhibition of Phosphodiesterase PDE3 at compound concentration of 10.0 uM in the Eurofins-Panlabs enzyme assay (Eurofins_assay_152000). It counts as protein assay. On the set-up: substrate with concentration 1.01 uM [3H] cAMP + cAMP, incubation time 20 min, incubation temperature 25 C. The following applies: Compound concentration […].

The target of series [27] is Glucocorticoid receptor (Homo sapiens) (UniProt P04150). Put plainly: Glucocorticoid Eurofins-Panlabs radioligand binding assay. Conditions: Compound concentration 10.0 uM.
Series [28] has as its target monoamine oxidase MAO-A (Homo sapiens, UniProt P21397). Put plainly: Inhibition of Monoamine Oxidase MAO-A at compound concentration of 10.0 uM in the Eurofins-Panlabs enzyme assay (Eurofins_assay_140010). On the set-up: substrate with concentration 50 uM Kynuramine, incubation time 60 min, incubation temperature 37 C. The following applies: recombinant human MAO-A expressed in insect Hi5 cells, probe kynuramine (50 uM), compound concentration 10 uM.

The species entered for series [29] is Rattus norvegicus. Put plainly: Potassium Channel [SKCA] Eurofins-Panlabs radioligand binding assay. Also on record: ligand concentration 0.005 nM. The following applies: Compound concentration 10.0 uM.
Series [30] has as its target Sodium-dependent serotonin transporter (Homo sapiens) (UniProt P31645). Conditions: Compound concentration 10.0 uM.
The target of series [31] is Neprilysin (Homo sapiens) (UniProt P08473). Put plainly: Peptidase, Metalloproteinase, Neutral Endopeptidase Eurofins-Panlabs enzyme assay. The following applies: Compound concentration 10.0 uM.
Series [32] addresses Neuromedin-K receptor (Homo sapiens) (UniProt P29371). The series can be described thus: Tachykinin NK3 Eurofins-Panlabs radioligand binding assay. Also on record: ligand concentration 0.8 nM. The following applies: Compound concentration 10.0 uM.
Series [33] deals with Sodium-dependent serotonin transporter (Homo sapiens) (UniProt P31645). Put plainly: Transporter, Serotonin (5- Hydroxytryptamine) (SERT) Eurofins-Panlabs radioligand binding assay. Conditions: Compound concentration 10.0 uM. Also on record: ligand concentration 0.15 nM, non-specific ligand with concentration 10 µM Imipramine, incubation time 3 h, incubation temperature 4 °C.

The species entered for series [34] is Homo sapiens. Put plainly: Inhibition of Phosphodiesterase PDE4 at compound concentration of 10.0 uM in the Eurofins-Panlabs enzyme assay (Eurofins_assay_154000). Format: protein assay. On the set-up: substrate with concentration 1.01 uM [3 H]cAMP + cAMP, incubation time 20 min, incubation temperature 25 C. Conditions: Compound concentration […].
Series [35] deals with T1, Muscarinic acetylcholine receptor M1 (Homo sapiens) (UniProt P11229).
T1 sequence (whole entry): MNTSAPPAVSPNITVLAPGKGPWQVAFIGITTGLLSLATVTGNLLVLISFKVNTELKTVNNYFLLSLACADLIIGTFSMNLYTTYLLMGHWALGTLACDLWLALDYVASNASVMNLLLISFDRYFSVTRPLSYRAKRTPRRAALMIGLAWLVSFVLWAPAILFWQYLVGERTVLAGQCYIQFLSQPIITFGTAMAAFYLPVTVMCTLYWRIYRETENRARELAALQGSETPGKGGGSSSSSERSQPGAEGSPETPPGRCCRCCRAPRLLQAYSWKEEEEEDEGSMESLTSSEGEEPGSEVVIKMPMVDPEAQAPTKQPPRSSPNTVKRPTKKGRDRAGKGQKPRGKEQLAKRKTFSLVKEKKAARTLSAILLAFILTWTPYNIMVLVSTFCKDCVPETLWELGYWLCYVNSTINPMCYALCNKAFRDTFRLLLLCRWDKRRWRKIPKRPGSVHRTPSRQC
The following applies: Compound concentration 10.0 uM.

Series [36] deals with D(2) dopamine receptor (Homo sapiens) (UniProt P14416). The following applies: Compound concentration 10.0 uM.
The target in series [37] is Alpha-2C adrenergic receptor (Homo sapiens) (UniProt P18825). The following applies: Compound concentration 10.0 uM.

SMILES strings stand for the structures.

Sequence of D(1B) dopamine receptor (Homo sapiens) (P21918 whole entry): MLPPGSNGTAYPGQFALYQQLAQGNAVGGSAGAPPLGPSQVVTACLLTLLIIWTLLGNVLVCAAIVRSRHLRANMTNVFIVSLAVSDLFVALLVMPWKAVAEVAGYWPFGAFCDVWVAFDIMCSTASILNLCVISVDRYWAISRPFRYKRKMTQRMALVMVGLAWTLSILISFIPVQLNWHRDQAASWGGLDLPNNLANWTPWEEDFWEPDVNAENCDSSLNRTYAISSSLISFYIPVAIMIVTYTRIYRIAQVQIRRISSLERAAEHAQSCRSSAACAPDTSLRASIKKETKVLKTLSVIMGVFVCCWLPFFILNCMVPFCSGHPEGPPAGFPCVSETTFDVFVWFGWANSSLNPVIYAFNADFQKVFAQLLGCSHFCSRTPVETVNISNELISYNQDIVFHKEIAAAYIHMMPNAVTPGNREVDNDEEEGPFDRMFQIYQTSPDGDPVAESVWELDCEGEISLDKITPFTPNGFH
Sequence of Sodium-dependent serotonin transporter (Homo sapiens) (P31645 whole entry, looked up): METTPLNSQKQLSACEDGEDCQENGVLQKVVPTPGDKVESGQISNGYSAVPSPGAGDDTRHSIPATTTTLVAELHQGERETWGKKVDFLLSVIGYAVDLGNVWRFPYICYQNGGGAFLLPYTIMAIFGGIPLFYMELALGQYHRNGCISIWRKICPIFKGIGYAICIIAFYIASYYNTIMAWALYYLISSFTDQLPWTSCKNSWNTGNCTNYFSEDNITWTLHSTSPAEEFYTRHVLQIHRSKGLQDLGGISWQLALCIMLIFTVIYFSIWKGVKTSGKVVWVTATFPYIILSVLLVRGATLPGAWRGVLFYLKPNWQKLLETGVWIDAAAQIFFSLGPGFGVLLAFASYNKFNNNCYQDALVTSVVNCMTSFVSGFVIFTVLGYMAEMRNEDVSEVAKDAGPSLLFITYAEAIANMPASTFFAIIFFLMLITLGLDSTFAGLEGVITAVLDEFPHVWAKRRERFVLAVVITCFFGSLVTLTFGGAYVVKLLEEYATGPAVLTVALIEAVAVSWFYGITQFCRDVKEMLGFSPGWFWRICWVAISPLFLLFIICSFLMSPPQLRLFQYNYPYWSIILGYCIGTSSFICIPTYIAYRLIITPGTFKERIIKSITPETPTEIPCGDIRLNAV
Sequence of Epidermal growth factor receptor (Homo sapiens) (P00533 whole entry): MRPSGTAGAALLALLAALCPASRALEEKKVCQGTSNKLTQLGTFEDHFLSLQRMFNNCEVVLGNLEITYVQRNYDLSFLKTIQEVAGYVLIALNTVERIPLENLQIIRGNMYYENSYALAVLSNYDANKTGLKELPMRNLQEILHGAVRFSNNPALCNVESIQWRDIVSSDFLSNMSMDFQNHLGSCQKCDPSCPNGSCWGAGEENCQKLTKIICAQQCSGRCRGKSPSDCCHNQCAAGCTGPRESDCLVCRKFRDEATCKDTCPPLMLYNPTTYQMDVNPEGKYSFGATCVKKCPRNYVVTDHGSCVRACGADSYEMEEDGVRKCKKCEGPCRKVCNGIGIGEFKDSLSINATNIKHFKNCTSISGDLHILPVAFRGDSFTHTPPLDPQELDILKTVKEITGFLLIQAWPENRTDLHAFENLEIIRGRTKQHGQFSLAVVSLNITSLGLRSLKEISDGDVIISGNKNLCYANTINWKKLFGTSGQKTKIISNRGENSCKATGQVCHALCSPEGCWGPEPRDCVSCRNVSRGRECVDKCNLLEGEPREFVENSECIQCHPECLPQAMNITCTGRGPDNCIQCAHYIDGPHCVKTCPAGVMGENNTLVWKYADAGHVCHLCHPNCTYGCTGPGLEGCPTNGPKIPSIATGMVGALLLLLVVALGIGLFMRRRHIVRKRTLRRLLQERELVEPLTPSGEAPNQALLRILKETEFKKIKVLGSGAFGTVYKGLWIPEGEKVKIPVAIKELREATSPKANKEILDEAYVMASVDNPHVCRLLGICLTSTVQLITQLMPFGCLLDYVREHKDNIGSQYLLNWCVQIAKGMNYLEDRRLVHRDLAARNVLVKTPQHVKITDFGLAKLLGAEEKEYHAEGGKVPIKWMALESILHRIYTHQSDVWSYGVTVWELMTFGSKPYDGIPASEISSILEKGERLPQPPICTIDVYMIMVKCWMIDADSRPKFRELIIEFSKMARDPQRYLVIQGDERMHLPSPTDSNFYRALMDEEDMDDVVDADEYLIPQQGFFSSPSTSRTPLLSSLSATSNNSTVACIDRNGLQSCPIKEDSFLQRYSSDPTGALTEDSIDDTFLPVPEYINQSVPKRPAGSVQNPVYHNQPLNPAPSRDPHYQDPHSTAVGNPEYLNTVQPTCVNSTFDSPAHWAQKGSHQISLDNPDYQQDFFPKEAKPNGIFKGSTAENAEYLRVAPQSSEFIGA
Sequence of Prostaglandin E2 receptor EP3 subtype (Homo sapiens) (P43115 whole entry): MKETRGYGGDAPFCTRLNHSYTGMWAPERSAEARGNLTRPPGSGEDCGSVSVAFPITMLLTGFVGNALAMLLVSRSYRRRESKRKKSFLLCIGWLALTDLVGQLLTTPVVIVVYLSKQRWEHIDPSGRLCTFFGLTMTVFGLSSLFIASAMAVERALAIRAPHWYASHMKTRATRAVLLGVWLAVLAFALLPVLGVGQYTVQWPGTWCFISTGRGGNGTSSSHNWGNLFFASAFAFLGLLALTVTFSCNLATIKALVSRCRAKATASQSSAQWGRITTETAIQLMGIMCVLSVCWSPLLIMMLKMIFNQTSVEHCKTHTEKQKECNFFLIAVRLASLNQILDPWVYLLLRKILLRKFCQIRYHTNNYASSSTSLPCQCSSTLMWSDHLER
Sequence of Beta-2 adrenergic receptor (Homo sapiens) (P07550 whole entry, looked up): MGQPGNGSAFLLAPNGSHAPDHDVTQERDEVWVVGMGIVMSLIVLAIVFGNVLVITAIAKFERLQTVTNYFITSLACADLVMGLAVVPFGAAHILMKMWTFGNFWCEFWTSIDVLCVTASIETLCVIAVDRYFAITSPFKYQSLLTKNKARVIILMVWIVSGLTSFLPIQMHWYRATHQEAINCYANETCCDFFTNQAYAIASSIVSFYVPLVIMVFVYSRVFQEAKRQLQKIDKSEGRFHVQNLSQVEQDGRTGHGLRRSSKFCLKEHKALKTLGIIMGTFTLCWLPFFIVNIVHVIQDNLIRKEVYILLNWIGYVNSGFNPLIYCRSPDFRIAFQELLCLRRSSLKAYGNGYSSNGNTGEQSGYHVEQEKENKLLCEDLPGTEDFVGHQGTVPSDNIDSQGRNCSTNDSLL
Sequence of Neprilysin (Homo sapiens) (P08473 whole entry): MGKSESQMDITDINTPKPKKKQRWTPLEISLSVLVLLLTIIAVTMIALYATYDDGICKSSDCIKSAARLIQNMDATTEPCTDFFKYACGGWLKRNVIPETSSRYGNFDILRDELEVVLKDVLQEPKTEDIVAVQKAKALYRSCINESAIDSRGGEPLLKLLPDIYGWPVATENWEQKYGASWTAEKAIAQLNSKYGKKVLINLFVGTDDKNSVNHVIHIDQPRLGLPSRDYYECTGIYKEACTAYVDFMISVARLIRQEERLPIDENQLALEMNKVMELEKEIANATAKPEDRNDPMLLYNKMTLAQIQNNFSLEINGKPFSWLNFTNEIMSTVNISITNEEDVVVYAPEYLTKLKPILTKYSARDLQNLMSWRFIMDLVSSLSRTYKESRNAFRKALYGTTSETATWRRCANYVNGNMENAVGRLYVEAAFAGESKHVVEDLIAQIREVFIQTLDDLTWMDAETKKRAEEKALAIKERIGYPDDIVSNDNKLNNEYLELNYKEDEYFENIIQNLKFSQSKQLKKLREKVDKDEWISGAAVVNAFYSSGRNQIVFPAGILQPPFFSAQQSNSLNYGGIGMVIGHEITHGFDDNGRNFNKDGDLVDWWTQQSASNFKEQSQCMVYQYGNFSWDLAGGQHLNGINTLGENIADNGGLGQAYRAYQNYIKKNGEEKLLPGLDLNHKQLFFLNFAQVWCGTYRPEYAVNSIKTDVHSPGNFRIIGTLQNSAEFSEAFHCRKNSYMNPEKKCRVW
Sequence of Nociceptin receptor (Homo sapiens) (P41146 whole entry): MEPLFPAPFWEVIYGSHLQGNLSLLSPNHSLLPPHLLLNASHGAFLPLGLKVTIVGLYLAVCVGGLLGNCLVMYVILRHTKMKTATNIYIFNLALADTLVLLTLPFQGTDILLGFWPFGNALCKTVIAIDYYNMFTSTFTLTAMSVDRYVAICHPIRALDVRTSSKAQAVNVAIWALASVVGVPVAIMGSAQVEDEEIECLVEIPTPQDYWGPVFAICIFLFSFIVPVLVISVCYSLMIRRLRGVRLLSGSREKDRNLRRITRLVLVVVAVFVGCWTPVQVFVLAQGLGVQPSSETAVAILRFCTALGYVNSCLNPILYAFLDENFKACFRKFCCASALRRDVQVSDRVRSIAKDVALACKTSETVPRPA
Sequence of Melanocortin receptor 5 (Homo sapiens) (P33032 whole entry): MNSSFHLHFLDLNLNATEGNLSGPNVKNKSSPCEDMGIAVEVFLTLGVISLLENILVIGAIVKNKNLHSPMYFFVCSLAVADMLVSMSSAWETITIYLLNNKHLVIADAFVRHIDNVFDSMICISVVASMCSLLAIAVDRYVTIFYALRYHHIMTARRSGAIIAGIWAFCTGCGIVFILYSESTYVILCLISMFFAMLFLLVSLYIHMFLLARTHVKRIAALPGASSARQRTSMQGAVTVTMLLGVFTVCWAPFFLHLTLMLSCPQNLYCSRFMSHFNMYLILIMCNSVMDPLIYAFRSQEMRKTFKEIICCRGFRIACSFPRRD
Sequence of Vasoactive intestinal polypeptide receptor 1 (Homo sapiens) (P32241 whole entry): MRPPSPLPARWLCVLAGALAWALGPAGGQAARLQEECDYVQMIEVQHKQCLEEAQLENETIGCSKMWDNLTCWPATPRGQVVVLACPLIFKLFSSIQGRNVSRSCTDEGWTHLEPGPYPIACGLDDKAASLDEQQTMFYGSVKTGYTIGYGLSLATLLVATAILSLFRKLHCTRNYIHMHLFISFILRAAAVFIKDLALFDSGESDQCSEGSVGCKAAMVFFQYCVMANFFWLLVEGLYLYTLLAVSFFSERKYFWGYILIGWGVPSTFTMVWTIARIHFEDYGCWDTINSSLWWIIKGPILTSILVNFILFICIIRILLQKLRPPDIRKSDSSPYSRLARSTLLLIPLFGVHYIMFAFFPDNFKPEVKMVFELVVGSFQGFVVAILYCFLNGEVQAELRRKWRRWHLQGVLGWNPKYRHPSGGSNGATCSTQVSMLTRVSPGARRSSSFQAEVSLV

Take `N#CC1(c2ccccn2)CCN(Cc2cc(C(=O)O)c(=O)n3ccccc23)CC1` [MSD-M1PAM]: the inhibition is 2% in series [1]; -2% in series [2]; -7% in series [3]; -5% in [4]; -3% in [5]; 1% in series [6]. Besides, the inhibition is -5% in series [7]; 9% in series [8]; 6% in series [9]; 11% in [10]; -7% in [11]; -8% in [12]. The inhibition is -4% in series [13]; -7% in series [14]; 0% in [15]; 0% in [16]; 13% in series [17]; 3% in series [18]. Further, the inhibition is 5% in [19]; -1% in series [20]; -9% in [21]; 14% in series [22]; 9% in series [23]; 14% in [25]. The inhibition in [26] was 1%; in series [27], 4%; in series [29], -10%; in series [30], 19%; in [31], 3%; in series [32], 7%. The inhibition is 9% in series [33], 8% in series [34] and 3% in [35]. Also, the inhibition at 10 µM in series [24] is 1% (not active). The inhibition at 60 min, 10 µM in [28] is 12% (not active).

Regarding `N#CC1(c2ccccn2)CCN(Cc2cc(C(=O)N3CCCC3)c(=O)n3ccccc23)CC1`, the inhibition was -5.66% in [36] and 1.13% in [37].
